Measurements: patent US8501806B2, “Methods for preventing or reducing colon carcinogenesis” (Nogra Pharma Limited, priority 2008, dated 2013)

Tests used:
[1] = tested on: 4T1 cells; assay: CFSE cell proliferation assay, 4T1 cells; assay type: cell-based, BALB/c; conditions: FIG. 9; graded doses, 24 hours
Experimental: All reagents were from Sigma-Aldrich (Milan, Italy), unless specified. Compound 14 was dissolved as a 25 mM stock solution in culture medium. 4T1 cells, a 6-thioguanine-resistant cell line derived from a BALB/c mammary carcinoma which spontaneously metastasizes to both the lung and liver, were obtained by ATCC and maintained at 37° C. in a humidified atmosphere of 5% CO2 in Dulbecco's modified Eagle's Medium (DMEM) supplemented with 10% inactivated fetal bovine serum (FBS) and 1% penicillin-streptomycin. For cell growth assays, serum-starved 4T1 cells were labeled with carboxyfluorescein diacetate succinimidyl ester (CFSE) (Invitrogen, Milan Italy) at 37° C. for 30 minutes, and then treated with increasing doses of compound 14. After 24 hours, cells were incubated with 5 μg/ml of propidium iodide (PI) for 15 minutes, at 4° C. CFSE and/or PI-positive cells were determined by flow cytometry (Becton Dickinson, Milan, Italy)

[2] = tested on: fibroblasts; assay: Proliferation of normal fibroblasts; assay type: cell-based; conditions: FIG. 4B; 48 hours
[3] = tested on: CDK2; assay: CDK2 phosphorylation by Western blotting; assay type: cell-based, human; conditions: FIG. 6, HCT-116 cells
Source text: One of 4 representative Western blots is shown.

[4] = tested on: colonic IEL (intra-epithelial lymphocytes); assay: Proliferation of normal colonic intra-epithelial lymphocytes (anti-CD3/CD28); assay type: cell-based; conditions: FIG. 4A; anti-CD3/CD28, graded doses, 48 hours
[5] = tested on: 4T1-derived tumors; assay: 4T1 syngeneic tumor model; assay type: in vivo, Balb/c mice; conditions: FIG. 10; daily subcutaneous or intraperitoneal 8 mg/kg/mouse, starting day 3
Experimental: Eight- to 10-week-old female Balb/c mice were used for the 4T1 syngeneic tumor model. 4T1 cells (1×10^5 cells in 300 μl PBS 1×) were injected subcutaneously (s.c.) into the flank of mice, whose fur was shaved and depilated. Three groups of 8 mice each were implanted with 4T1. The first group received daily s.c. 300 μl PBS (control), the remaining groups were injected daily with compound 14 (8 mg/kg/mouse) s.c. or intraperitoneally (i.p.). Both compound 14 and PBS were administered starting on day 3. Mice were monitored over the time for weight loss and sacrificed at day 14. Tumors were photographed, and excised, and their mass calculated according to the following formula: ½×(short diameter)×(long diameter)×(height).

SMILES: COc1ccc(N)cc1C(=O)NO [compound 14, 2-methoxy-5-amino-N-hydroxybenzamide]
- in vitro proliferation of 4T1 cells [1]: dose-dependently inhibited
- proliferation of normal fibroblasts [2]: did not affect
- CDK2 phosphorylation on threonin 14 and tyrosine 15 [3]: enhanced phosphorylation
- proliferation of normal colonic intra-epithelial lymphocytes [4]: did not affect
- 4T1-derived tumor mass in comparison to controls [5]: significant decrease
